Assays:
Type in all cases: cell-based
[1] = system: sindbis viruses; test: antiviral bioassay using FL cells and sindbis viruses
Description: The antiviral activity of the resultant synthetic peptides was inspected by a bioassay method using human amnion-derived FL cells and sindbis viruses (Armstrong, J. A., Methods in Enzymology, 78, 381-387 (1981)). FL cells were inoculated on wells of a 96-well microtiter plate (IWAKI GLASS CO., LTD.) at 3.5×10^5 cells/well and cultured for 24 hours. Thereafter, each peptide was added at the concentration shown in FIG. 3 (0.9 μM to 120 μM) and cultured for 24 hours. […] Thereafter, sindbis viruses were added to each well and cultured for 15 hours. The culture solution was discarded, the plate was immersed in a crystal violet solution containing formalin for about 15 minutes, and living cells were immobilized and stained.
In order to identify an amino acid residue that plays an important role in expressing the antiviral activity of peptide SYR6, 12 types of varied peptides were prepared through chemical synthesis in which each of all the amino acid residues other than alanine of SYR6 were respectively substituted with alanine (peptides were successively designated as N1 to N15 in order from the N-terminus side in accordance with the number of the amino acid residue converted into alanine. Since the fourth, eighth, and ninth residues are alanine, excluding these, a total of 12 types of peptides was prepared). The sequences are shown in the lower part of FIG. 7. […]

[2] = system: vesicular stomatitis viruses (VSV); settings: human amnion-derived FL cells
[3] = system: sindbis viruses; test: antiviral activity in the presence of interferon neutralizing antibodies (FL cells, sindbis viruses); settings: MIF-1 (anti-IFN α), YSB-1 (anti-IFN β), anti-IFN γ antibodies added
Description: In order to deny the possibility that the antiviral activity of peptide SYR6 is attained by inducing endogenous production of interferon, the antiviral activity in the presence of various interferon neutralizing antibodies was examined. FL cells were inoculated on wells of a 96-well microtiter plate (IWAKI GLASS CO., LTD.) at 3.5×10^5 cells/well and cultured for 24 hours. Thereafter, peptide SYR6 was added at the concentration shown in FIG. 5 (0.9 μM to 120 μM) and cultured for 24 hours. […] Thereafter, sindbis viruses were added to each well and cultured for 15 hours. In this case also, various neutralizing antibodies were added and cultured under the same conditions as described above. The culture solution was discarded, the plate was immersed in a crystal violet solution containing formalin for about 15 minutes, and living cells were immobilized and stained. […] Therefore, the possibility that the antiviral activity of peptide SYR6 was attained by inducing the production of endogenous interferon was denied.

## SYR6: synthetic 15-residue peptide with the sequence of phage 6, SEQ ID NO: 1 (SVQARWEAAFDLDLY; Designed peptide based on the DNA sequence of phage binding to monoclonal antibody YSB-2)
[1]; FL cells, SYR6 HPLC peaks measured separately
  antiviral activity of the synthetic peptides (FIG. 3): activity was recognized
[1]; human amnion-derived FL cells, peptide 0.9 μM to 120 μM for 24 hours
  concentration at which the peptide began to exhibit antiviral activity: 30 µM
[2]
  concentration at which the peptide began to exhibit antiviral activity: 30 µM
[3]
  antiviral activity in the presence of interferon neutralizing antibodies: not affected at all
